Test results reported in US20030003517A1, “Methods of detecting dissociated nuclear hormone receptor ligands” (priority 2001, published 2003).
Positions count from the first letter of the chain named.

Assays:
[1] = system: ER-RARα; test: ER-RARα chimeric receptor transactivation assay in transfected CV-1 cells (luciferase); type: cell-based; settings: CV-1 cells transfected with ER-RARα; highest dose tested 1 μM; FIG. 3A
Method: (§1) RAR transactivation assays were performed essentially as previously described. For analysis of ER-RARα chimeric receptor transactivation, 5×10^3 CV-1 cells were plated per well of a 96-well microtiter plate and were transiently transfected with Lipofectamine and the indicated DNA. Specifically, transfections were performed with 0.1 μg of pERE-tk-Luc reporter, which contains the estrogen regulated element of the Xenopus vittelogenin A2 gene inserted into the plasmid tk-Luciferase, and 0.01 μg of the SV-40 based vector pECE carrying a chimeric ER-RAR receptor consisting of the estrogen receptor A/B and DNA binding domains fused to the DEF domain of RARα, β or γ. Alternatively, cells were cotransfected with the reporter plasmid MTV-4 (R5G)-Luciferase together with the plasmid pRS-hRXRα and either pRS-RARα-P-GR, pcDNA3-RARβ-P-GR, or pcDNA3-RARγ-P-GR as previously described (Klein et al., J. Biol. Chem. 271:22692-22696 (1996)). After eighteen hours, cells were rinsed with phosphate buffered saline (PBS) and fed with D-MEM (Gibco-BRL) containing 10% activated charcoal extracted fetal bovine serum (Gemini Bio-Products). Cells were treated with retinoids for 18 hours after which they were lysed; luciferase activity was measured as previously described, with luciferase values representing the mean±SEM of quadruplicate determinations.

[2] = biological target: T1, RARα/RXRα heterodimer bound to a DR-5 retinoic acid receptor response element (RARE) (Homo sapiens, UniProt P10276); test: DNA dependent coregulator recruitment assay (ternary complex immunoprecipitation from transfected CV-1 whole cell extracts); type: biochemical; settings: for ligand mediated dissociation of N-CoR: wild type RARα ternary complex; for SRC-1 recruitment to the wild type ternary complex: wild type RARα/RXRα, FIG. 1, FIG. 5B
T1 construct: expressed in transfected cells; host or cells: CV-1 cells, transient transfection; whole cell extract
T1 sequence (P10276 1-462): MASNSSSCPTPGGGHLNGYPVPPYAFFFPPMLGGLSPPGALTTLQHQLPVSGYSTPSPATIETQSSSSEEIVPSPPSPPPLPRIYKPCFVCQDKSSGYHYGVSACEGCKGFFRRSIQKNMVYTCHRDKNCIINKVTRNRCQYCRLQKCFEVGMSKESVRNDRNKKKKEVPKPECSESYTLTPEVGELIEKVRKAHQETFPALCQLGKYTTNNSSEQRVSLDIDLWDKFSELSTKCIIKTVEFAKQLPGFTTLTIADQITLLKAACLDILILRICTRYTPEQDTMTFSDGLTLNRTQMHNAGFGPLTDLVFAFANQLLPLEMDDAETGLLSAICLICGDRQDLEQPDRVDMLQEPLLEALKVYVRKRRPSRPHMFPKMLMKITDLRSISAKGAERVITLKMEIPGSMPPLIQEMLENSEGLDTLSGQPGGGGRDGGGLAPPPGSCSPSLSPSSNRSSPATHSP
T1 sequence (P19793 1-462 partner): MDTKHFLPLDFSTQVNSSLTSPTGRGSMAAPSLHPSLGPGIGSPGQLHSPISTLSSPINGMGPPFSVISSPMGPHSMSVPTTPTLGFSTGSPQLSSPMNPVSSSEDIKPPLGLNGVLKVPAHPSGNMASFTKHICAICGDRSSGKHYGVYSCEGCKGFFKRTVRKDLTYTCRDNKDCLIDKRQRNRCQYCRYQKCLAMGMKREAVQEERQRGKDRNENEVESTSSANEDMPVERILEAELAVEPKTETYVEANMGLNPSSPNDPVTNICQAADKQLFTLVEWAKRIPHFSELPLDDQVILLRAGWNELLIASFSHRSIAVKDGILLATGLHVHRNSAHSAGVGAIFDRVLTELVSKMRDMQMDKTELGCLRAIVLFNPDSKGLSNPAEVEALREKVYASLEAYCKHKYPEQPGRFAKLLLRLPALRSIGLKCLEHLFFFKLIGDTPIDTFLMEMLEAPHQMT
Method: Cells were transfected and cell extracts prepared essentially as follows. For whole cell extracts, CV-1 cells were cultured with D-MEM (Gibco-BRL Life Technologies; Rockville, Md.) containing 10% activated charcoal extracted fetal bovine serum (Gemini Bio-Products). At a density of 40˜60% (15-cm plate, Falcon; Fort Worth, Tex.), cells were transiently transfected with 15 μl FuGene 6 Transfection Reagent (Roche Diagnostics) with 0.5 ug of pRS-RXRα, and 5 ug of either pcDNA3.1-hRARα-V5, pcDNA3.1-hRARβ-V5 or pcDNA3.1-hRARγ-V5 per plate. After two days, cells were rinsed twice with PBS and lysed in cold NET buffer (20 mM Tris-Cl [pH8.0], 200 mM NaCl, 1 mM EDTA, 0.1% NP-40, 10% glycerol) containing protease inhibitors, homogenized by QIAshredder (Qiagen; Valencia, Calif.), and clarified by centrifugation.
Immunoprecipitations and western analyses were performed as follows. CV-1 whole cell extract from transfected cells (1 mg) was used for each immunoprecipitation. Cell lysates were incubated with ligands on ice for 1 hour. […] After a 1 hour incubation on ice with primary antibody (mouse anti-V5, Invitrogen), protein G-agarose (SIGMA) was added and samples were rocked overnight at 4° C. […] Membranes were probed with the indicated antibodies in PBS-T buffer (PBS with 0.1% Tween-20) containing 5% nonfat dry milk, and washed in PBS-T buffer. Primary antibodies (#SC553, rabbit anti-RXRα; #SC1609, goat anti-N-CoR) were obtained from Santa Cruz Biotech and Affinity BioReagents (#MA1-840, mouse anti-SRC-1; Golden, Colo.).
The DNA dependent coregulator recruitment assay was used to measure the ability of RARα selective ligands shown in Table 2 to recruit the coactivators SRC-1 and ACTR to the RARα/RXRα heterodimer bound to a DR-5 retinoic acid receptor response element (RARE).

[3] = system: AP-1; test: Anti-AP1 assay: phorbol ester stimulated collagenase-promoter reporter containing an AP-1 response element; type: cell-based; settings: for anti-AP-1 activity (antagonism of TPA stimulated collagenase reporter activity): FIG. 6
Method: The ability of AGN196382 to antagonize phorbol ester stimulated transcription was assayed using a collagenase-promoter reporter construct containing an AP-1 response element. […] Specifically, detection of anti-AP-1 activity by AGN196382 was only detectable at doses greater than 10 μM; similarly, detection of SRC-1 recruitment to the ternary complex by 196382 was apparent only at doses greater than 10 μM. Such elevated doses of AGN196382, while sufficient for efficacious anti-AP-1 activity, are not sufficient for efficient transcriptional activation of RARα.

[4] = system: RARα(R272-A)-P-GR; test: RARα(R272-A)-P-GR retinoid reporter transactivation in CV-1 cells; type: cell-based; settings: FIG. 4
Method: RAR transactivation assays were performed essentially as previously described. For analysis of ER-RARα chimeric receptor transactivation, 5×10^3 CV-1 cells were plated per well of a 96-well microtiter plate and were transiently transfected with Lipofectamine and the indicated DNA. […] After eighteen hours, cells were rinsed with phosphate buffered saline (PBS) and fed with D-MEM (Gibco-BRL) containing 10% activated charcoal extracted fetal bovine serum (Gemini Bio-Products). Cells were treated with retinoids for 18 hours after which they were lysed; luciferase activity was measured as previously described, with luciferase values representing the mean±SEM of quadruplicate determinations.

[5] = system: RARα-P-GR (wild type RARα); test: RARα-P-GR retinoid reporter transactivation in CV-1 cells; type: cell-based; settings: FIG. 4
Method: as §1, with “After eighteen hours, cells were rinsed with phosphate buffered saline (PBS) and fed with D-MEM (Gibco-BRL) containing 10% activated charcoal extracted fetal bovine serum (Gemini Bio-Products).” left out
The RAR=60 R272-A mutant was analyzed for dominant negative activity using a retinoid reporter system responsive to transfected RARs recognizing RAREs containing a glucocorticoid receptor half-site (Klein et al., supra, 1996).

[6] = biological target: T2, RARα R272-A containing ternary complex (Homo sapiens, UniProt P10276, R272A); test: Ternary complex coregulator assay with RARα-V5 mutant R272-A; type: biochemical; settings: 1 μM ligand; FIG. 2
T2 construct: expressed in transfected cells; host or cells: CV-1 cells, transient transfection; whole cell extract
T2 sequence (P10276 1-462 R272A): T1 sequence (P10276 1-462) with R272A
T2 sequence (P19793 1-462 partner): T1 sequence (P19793 1-462 partner)
Method: Immunoprecipitations and western analyses were performed as follows. CV-1 whole cell extract from transfected cells (1 mg) was used for each immunoprecipitation. Cell lysates were incubated with ligands on ice for 1 hour. […] After a 1 hour incubation on ice with primary antibody (mouse anti-V5, Invitrogen), protein G-agarose (SIGMA) was added and samples were rocked overnight at 4° C. […] Membranes were probed with the indicated antibodies in PBS-T buffer (PBS with 0.1% Tween-20) containing 5% nonfat dry milk, and washed in PBS-T buffer. […]

[7] = biological target: RARα/RXRα heterodimer (wild type RARα-V5 with RXRα) in the RAR/RXR/DNA ternary complex (human) (UniProt P19793); test: co-immunoprecipitation of ternary complex, western blot; with 1 µM AGN194794, relative to 1 µM TTNPB
[8] = biological target: RARα/RXRα heterodimer (wild type RARα-V5 with RXRα) in the RAR/RXR/DNA ternary complex (human) (UniProt P19793); test: co-immunoprecipitation of ternary complex, western blot; with 1 µM AGN196382, relative to 1 µM TTNPB

In the case of `CC12CCC(C)(CC1)c1c2cc(C(=O)Nc2cc(F)c(C(=O)O)c(F)c2)c(O)c1Br` [AGN194794], the “transactivation at RARα” value [1] is reported as “activated RARα, albeit with slightly less efficacy and potency”, the “p300 recruitment relative to TTNPB” value ([2]; ligands 1 μM, FIG. 3B) is reported as 34% and the “ligand mediated dissociation of N-CoR” value [2] is reported as “full N-CoR disengagement”. For the same compound, the “ligand mediated dissociation of N-CoR” value ([2]; listed as 194794) was “dissociation of N-CoR” and the “SRC-1 recruitment to the wild type ternary complex” value [2] was “essentially identical for the two ligands”.

With `C/C(=C\c1ccc(C(=O)O)cc1)c1ccc2c(c1)C(C)(C)CCC2(C)C` [TTNPB, reference compound] the “anti-AP-1 activity (antagonism of TPA stimulated collagenase reporter activity)” value [3] was “potent and efficacious anti-AP-1 activity”.

For `CCOc1c(C(C)C)cc(C(=O)Nc2cc(F)c(C(=O)O)c(F)c2)cc1C(C)C` [AGN196382], the “activation of RARα(R272-A)” value [4] was “not activated at all”, the “dose at which anti-AP-1 activity is detectable” value [3] was “greater than 10 μM” and the “anti-AP-1 activity (antagonism of TPA stimulated collagenase reporter activity)” value [3] was “similarly efficacious”. For the same compound, the “activation of wild type RARα” value [5] was “significantly reduced relative to TTNPB”, the “transactivation at RARα” value [1] was “no activity at RARα except at the highest dose (1 μM) tested” and the “dose at which SRC-1 recruitment to the ternary complex is apparent” value [2] was “greater than 10 μM”. The “p300 recruitment relative to TTNPB” value ([2]; ligands 1 μM, FIG. 3B) was 30%, the “ligand mediated dissociation of N-CoR” value [2] was “nearly absent” and the “ligand mediated dissociation of N-CoR” value ([2]; listed as 196382) was “significantly impaired”. For the same compound, the “SRC-1 recruitment to the wild type ternary complex” value [2] was “essentially identical for the two ligands” and the “SRC-1 recruitment to RARα R272-A ternary complex” value [6] was “lack of recruitment of SRC-1”.

For “p300 (coactivator p300/CBP) (from UniProt Q09472 2-2414)”, the % recruitment relative to TTNPB [7] was 34% and the % recruitment relative to TTNPB [8] was 30%.

`CCOc1c(C2CC2)cc(C(=O)Nc2cc(F)c(C(=O)O)c(F)c2)cc1C(C)(C)C` [AGN196412] was tested, and the “transactivation at RARα” value [1] was “no activity at RARα except at the highest dose (1 μM) tested”, the “ACTR recruitment compared to TTNPB” value ([2]; ligands 1 μM, FIG. 3B) was 65% and the “ligand mediated dissociation of N-CoR” value [2] was “significantly impaired”.

With `CC(C)c1cc(C(=O)Nc2ccc(C(=O)O)c(F)c2)c(O)c(C(C)C)c1` [AGN194365] the “transactivation at RARα” value [1] was “potent and effective transactivation properties”, the “SRC-1 recruitment compared to TTNPB” value ([2]; ligands 1 μM, FIG. 3B) was 65% and the “ligand mediated dissociation of N-CoR” value [2] was “dissociation of N-CoR”.
